In ChEMBL document CHEMBL5352456, “Isocyanides in med chem: A scaffold hopping approach for the identification of novel 4-isocyanophenylamides as potent antibacterial agents against methicillin-resistant Staphylococcusaureus” (Eur J Med Chem, 2023):
Converted amounts (≈) assume the structure as drawn. The source made the active and inactive calls. No cut-off for these calls is given here.

System: not listed separately
Assay: Metabolic stability in human plasma assessed as parent compound remaining at 50 uM incubated for 60 mins by LC-UV analysis
Format: ADME, cell-free
Conditions: read-out: Stability

Q: Which remaining at 1 h, 50 µM does the source give for `[C-]#[N+]c1ccc(NC(=O)c2ccncc2)cc1` here?
A: > 99%

System: Clavibacter michiganensis
Assay: Antibacterial activity against Clavibacter michiganensis assessed as inhibition of bacterial growth
Format: functional
Conditions: not given

Q: Which MIC does the source give for `[C-]#[N+]C(=C\c1ccc(O)cc1)/C(=C/c1ccc2c(c1)CCC(C)(C)O2)[N+]#[C-]` here?
A: 0.87 µM (≈ 0.31 µg/mL)

System: Staphylococcus aureus
Assay: Antibacterial activity against Staphylococcus aureus ATCC 6538 assessed as reduction in microbial growth measured for 16 to 20 hrs by microdilution assay
Format: functional
Conditions: time 16-20 hrs

Q: Which MIC does the source give for `[C-]#[N+]c1ccc(NC(=O)c2ccncc2)cc1` here?
A: > 8 µM

System: Staphylococcus aureus
Assay: Antibacterial activity against Staphylococcus aureus ATCC 25923 assessed as reduction in microbial growth measured for 16 to 20 hrs by microdilution assay
Format: functional
Conditions: time 16-20 hrs

Q: With `[C-]#[N+]c1ccc(NC(=O)c2ccncc2)cc1` as the molecule, how does the MIC read?
A: > 8 µM

System: Clostridium tetani
Assay: Antibacterial activity against Clostridium tetani assessed as inhibition of bacterial growth
Format: functional
Conditions: not given

Q: Which MIC does the source give for `[C-]#[N+]C(=C\c1ccc(O)cc1)/C(=C/c1ccc(O)cc1)[N+]#[C-]` [XANTOCILLIN] here?
A: 0.69 µM (≈ 0.199 µg/mL)

System: Staphylococcus aureus
Assay: Antibacterial activity against Staphylococcus aureus assessed as inhibition of bacterial growth
Format: functional
Conditions: not given

Q: With `[C-]#[N+]/C(Cl)=C/C1(OC(C)=O)C(=O)Nc2ccccc21` (stereo not drawn) as the molecule, how does the MIC read?
A: 0.18 µM (≈ 0.0498 µg/mL)

System: Staphylococcus aureus
Assay: Antibacterial activity against Staphylococcus aureus ATCC 29213 assessed as reduction in microbial growth measured for 16 to 20 hrs by microdilution assay
Format: functional
Conditions: time 16-20 hrs

Q: With `[C-]#[N+]c1ccc(NC(=O)c2ccncc2)cc1` as the molecule, how does the MIC read?
A: > 8 µM

System: Staphylococcus aureus
Assay: Anti-biofilm activity in Staphylococcus aureus ATCC 6538 assessed as inhibition of biofilm formation upto 128 uM measured for 24 hrs by MTT assay
Format: functional, organism-based
Conditions: not given

Q: For `COc1cc(Cc2cnc(N)nc2N)cc(OC)c1OC`, which Activity is on record?
A: inactive

System: Acinetobacter baumannii
Assay: Antibacterial activity against Acinetobacter baumannii assessed as inhibition of bacterial growth
Format: functional
Conditions: not given

Q: For `[C-]#[N+]C(=C\c1ccc(O)cc1)/C(=C/c1ccc(O)cc1)[N+]#[C-]` [XANTOCILLIN], which MIC is on record?
A: 0.25 µM (≈ 0.0721 µg/mL)

Q: Which MIC does the source give for `[C-]#[N+]C(=C)[C@@](Cc1ccc(OC)cc1)([N+]#[C-])[C@@H]1C[C@@H](OC(=O)CO)CC[C@@H]1O` here?
A: 0.52 µM (≈ 0.2 µg/mL)

System: Escherichia coli
Assay: Antibacterial activity against Escherichia coli ATCC 25922 assessed as inhibition of bacterial growth measured for 16 to 20 hrs by microdilution assay
Format: functional
Conditions: time 16-20 hrs

Q: With `[C-]#[N+]c1ccc(NC(=O)c2ccncc2)cc1` as the molecule, how does the MIC read?
A: ≥ 64 µM

System: Bacillus anthracis
Assay: Antibacterial activity against Bacillus anthracis assessed as inhibition of bacterial growth
Format: functional
Conditions: not given

Q: With `[C-]#[N+]/C(Cl)=C/C1(OC(C)=O)C(=O)Nc2ccccc21` (stereo not drawn) as the molecule, how does the MIC read?
A: 0.7 µM (≈ 0.194 µg/mL)

System: Pseudomonas aeruginosa
Assay: Antibacterial activity against Pseudomonas aeruginosa assessed as inhibition of bacterial growth
Format: functional
Conditions: not given

Q: Which MIC does the source give for `[C-]#[N+]C(=C\c1ccc(O)cc1)/C(=C/c1ccc(O)cc1)[N+]#[C-]` [XANTOCILLIN] here?
A: 0.69 µM (≈ 0.199 µg/mL)

Q: With `[C-]#[N+]C(=C)[C@@](Cc1ccc(OC)cc1)([N+]#[C-])[C@@H]1C[C@@H](OC(=O)CO)CC[C@@H]1O` as the molecule, how does the MIC read?
A: 0.52 µM (≈ 0.2 µg/mL)

System: Klebsiella pneumoniae
Assay: Antibacterial activity against Klebsiella pneumoniae assessed as inhibition of bacterial growth
Format: functional
Conditions: not given

Q: For `[C-]#[N+]/C(Cl)=C/C1(OC(C)=O)C(=O)Nc2ccccc21` (stereo not drawn), which MIC is on record?
A: 0.7 µM (≈ 0.194 µg/mL)

System: Klebsiella pneumoniae
Assay: Antibacterial activity against Klebsiella pneumoniae ATCC 700603 assessed as inhibition of bacterial growth measured for 16 to 20 hrs by microdilution assay
Format: functional
Conditions: time 16-20 hrs

Q: Which MIC does the source give for `[C-]#[N+]c1ccc(NC(=O)c2ccncc2)cc1` here?
A: ≥ 64 µM

System: Pseudomonas aeruginosa
Assay: Antibacterial activity against Pseudomonas aeruginosa ATCC 10145 assessed as inhibition of bacterial growth measured for 16 to 20 hrs by microdilution assay
Format: functional
Conditions: time 16-20 hrs

Q: With `[C-]#[N+]c1ccc(NC(=O)c2ccncc2)cc1` as the molecule, how does the MIC read?
A: ≥ 64 µM

System: not listed separately
Assay: Metabolic stability in rat liver microsome assessed as parent compound remaining at 50 uM incubated for 1 hr in presence of NADPH regenerating system and GSH by LC-UV analysis
Format: ADME
Conditions: liver microsomes, read-out: Stability

Q: With `[C-]#[N+]c1ccc(NC(=O)c2ccncc2)cc1` as the molecule, how does the remaining at 1 h, 50 µM read?
A: 29%
